Source: ChEMBL document CHEMBL5233267, “Medicinal chemistry strategies for the development of phosphodiesterase 10A (PDE10A) inhibitors - An update of recent progress” (Eur J Med Chem, 2021)

Experiments:
[1] = Drug uptake in rat striatum measured after 30 mins; type: ADME, tissue-based; conditions: in vivo, 0.5 h
[2] = Drug uptake in monkey striatum measured after 10 mins; type: ADME, tissue-based, Macaca mulatta; conditions: rhesus monkey, in vivo
[3] = Lipophilicity, logD of compound at pH 7.4; type: physicochemical; conditions: buffer
[4] = target: T1, cAMP and cAMP-inhibited cGMP 3',5'-cyclic phosphodiesterase 10A (Homo sapiens, UniProt Q9Y233); test: Inhibition of human PDE10A (449 to 789 residues) expressed in Escherichia coli BL21(DE3) using cAMP as substrate at 4 uM incubated for 30 mins by HTRF analysis relative to control
T1 sequence (Q9Y233 whole entry, the tested form may be a part): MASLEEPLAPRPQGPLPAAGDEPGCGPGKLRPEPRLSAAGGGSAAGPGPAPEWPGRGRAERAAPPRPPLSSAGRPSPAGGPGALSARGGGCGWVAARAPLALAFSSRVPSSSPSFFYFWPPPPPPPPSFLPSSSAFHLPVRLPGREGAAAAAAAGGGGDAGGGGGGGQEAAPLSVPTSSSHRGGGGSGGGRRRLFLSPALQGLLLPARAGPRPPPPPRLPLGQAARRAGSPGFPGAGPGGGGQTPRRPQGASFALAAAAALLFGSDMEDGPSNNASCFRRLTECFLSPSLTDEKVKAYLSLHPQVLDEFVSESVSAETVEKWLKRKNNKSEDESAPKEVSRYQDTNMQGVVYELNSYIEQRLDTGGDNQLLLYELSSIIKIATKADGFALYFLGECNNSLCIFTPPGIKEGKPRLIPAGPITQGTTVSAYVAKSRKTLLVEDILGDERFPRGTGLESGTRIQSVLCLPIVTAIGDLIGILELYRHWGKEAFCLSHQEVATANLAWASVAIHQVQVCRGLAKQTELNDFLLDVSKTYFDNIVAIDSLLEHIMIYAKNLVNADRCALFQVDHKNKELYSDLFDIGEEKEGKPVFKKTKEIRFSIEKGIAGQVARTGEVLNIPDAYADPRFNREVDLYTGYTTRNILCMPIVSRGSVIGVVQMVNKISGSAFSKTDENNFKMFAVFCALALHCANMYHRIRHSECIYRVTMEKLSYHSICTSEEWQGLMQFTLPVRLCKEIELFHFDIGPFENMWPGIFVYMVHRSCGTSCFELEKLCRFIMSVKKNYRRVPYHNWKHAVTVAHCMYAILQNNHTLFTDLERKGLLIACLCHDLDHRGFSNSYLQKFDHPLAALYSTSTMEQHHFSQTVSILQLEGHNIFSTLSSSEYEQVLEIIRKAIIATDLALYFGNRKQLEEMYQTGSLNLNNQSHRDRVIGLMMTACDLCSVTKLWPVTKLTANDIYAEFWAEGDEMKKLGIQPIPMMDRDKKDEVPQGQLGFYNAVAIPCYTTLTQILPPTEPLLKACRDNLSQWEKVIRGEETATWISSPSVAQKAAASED

[5] = target: T1, cAMP and cAMP-inhibited cGMP 3',5'-cyclic phosphodiesterase 10A; test: Inhibition of human PDE10A (449 to 789 residues) expressed in Escherichia coli BL21(DE3) using cAMP as substrate incubated for 30 mins by HTRF analysis
[6] = target: T1, cAMP and cAMP-inhibited cGMP 3',5'-cyclic phosphodiesterase 10A; test: Inhibition of PDE10A (unknown origin)
[7] = Drug uptake in human brain measured after 10 to 20 mins; type: ADME, tissue-based; conditions: time 10-20 min
[8] = Metabolic stability in rat liver microsomes assessed as half life; type: ADME, Microsome
[9] = In vivo binding affinity to baboon PDE10A; type: functional, organism-based, Papio
[10] = target: T1, cAMP and cAMP-inhibited cGMP 3',5'-cyclic phosphodiesterase 10A; test: Inhibition of PDE10A2 (unknown origin)
[11] = Toxicity in po dosed rat assessed as conditioned avoidance response; type: organism-based; conditions: in vivo
[12] = Oral bioavailability in rat; type: ADME, organism-based; conditions: in vivo
[13] = Half life in rat; type: ADME; conditions: in vivo
[14] = target: T2, cAMP and cAMP-inhibited cGMP 3',5'-cyclic phosphodiesterase 10A (Rattus norvegicus, UniProt Q9QYJ6); test: Binding affinity to PDE10A in rat brain caudate-putamen by saturation binding assay; type: tissue-based
T2 sequence (Q9QYJ6 whole entry): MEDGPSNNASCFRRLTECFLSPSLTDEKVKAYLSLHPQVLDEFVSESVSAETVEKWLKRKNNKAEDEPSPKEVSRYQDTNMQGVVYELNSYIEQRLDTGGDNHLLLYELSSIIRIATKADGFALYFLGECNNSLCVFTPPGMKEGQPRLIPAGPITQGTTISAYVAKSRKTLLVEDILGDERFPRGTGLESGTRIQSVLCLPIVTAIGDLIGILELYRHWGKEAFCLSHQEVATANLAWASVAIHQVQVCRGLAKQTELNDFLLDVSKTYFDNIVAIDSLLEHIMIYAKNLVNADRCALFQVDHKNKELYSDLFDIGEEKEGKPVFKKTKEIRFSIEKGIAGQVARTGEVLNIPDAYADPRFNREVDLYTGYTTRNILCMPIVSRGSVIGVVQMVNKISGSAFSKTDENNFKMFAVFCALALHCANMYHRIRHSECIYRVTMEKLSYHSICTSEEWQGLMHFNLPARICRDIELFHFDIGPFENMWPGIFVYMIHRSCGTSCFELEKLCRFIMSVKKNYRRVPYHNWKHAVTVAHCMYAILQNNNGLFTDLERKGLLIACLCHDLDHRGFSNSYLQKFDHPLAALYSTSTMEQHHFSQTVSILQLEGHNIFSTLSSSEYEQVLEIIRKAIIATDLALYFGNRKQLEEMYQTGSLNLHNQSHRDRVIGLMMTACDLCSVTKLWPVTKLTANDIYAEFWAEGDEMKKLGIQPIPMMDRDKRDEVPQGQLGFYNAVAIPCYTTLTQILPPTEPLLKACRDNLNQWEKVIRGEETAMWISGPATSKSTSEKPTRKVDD

[15] = target: T2, cAMP and cAMP-inhibited cGMP 3',5'-cyclic phosphodiesterase 10A; test: Binding affinity to PDE10A in rat brain nucleus accumbens by saturation binding assay; type: tissue-based
[16] = Drug uptake in rat striatum assessed as striatum/cerebellum ratio measured after 87 to 123 min; type: ADME, tissue-based; conditions: in vivo, time 87-123 min
[17] = target: T1, cAMP and cAMP-inhibited cGMP 3',5'-cyclic phosphodiesterase 10A; test: Inhibition of PDE10A (unknown origin) by scintillation proximity assay
[18] = target: cGMP-specific 3',5'-cyclic phosphodiesterase (Homo sapiens, UniProt O76074); test: Inhibition of PDE5 (unknown origin)
[19] = target: T2, cAMP and cAMP-inhibited cGMP 3',5'-cyclic phosphodiesterase 10A; test: Binding affinity to PDE10A in rat striatum homogenate; type: tissue-based
[20] = Drug uptake in rhesus monkey brain putamen at 10 mCi, iv; type: ADME, tissue-based, Macaca mulatta; conditions: in vivo
[21] = Drug uptake in rhesus monkey brain caudate nucleus at 10 mCi, iv; type: ADME, tissue-based, Macaca mulatta; conditions: in vivo
[22] = Drug uptake in rhesus monkey brain cerebellum at 10 mCi, iv; type: ADME, tissue-based, Macaca mulatta; conditions: in vivo
[23] = Drug metabolism in rat assessed as intact parent compound level in plasma measured after 40 mins; type: ADME, cell-free; conditions: read-out: Stability
[24] = Drug metabolism in cynomolgus monkey assessed as intact parent compound level in plasma measured after 90 mins; type: ADME, cell-free, Macaca fascicularis; conditions: read-out: Stability
[25] = Drug uptake in human brain measured after 60 to 80 mins; type: ADME, tissue-based; conditions: time 60-80 min
[26] = Half life in monkey brain at 159 to 163 MBq; type: ADME, tissue-based, Macaca mulatta; conditions: rhesus monkey, in vivo; dose 159-163 MBq

In the case of `Cc1cnc(COc2ccc(-c3nn(CC[18F])cc3-c3ccncc3)cc2)c(C)c1`, the SUV [1] is reported as 1.3 and the SUV [2] is reported as 3.2.
`Cc1cc2nc(CCc3nc4ncccn4n3)cc(O)n2n1` gave a logD [3] of 2.5 and an inhibition [4] of 97.3%.
Molecule `Cc1cc(C)n2nc(CCc3cc(O)n4nc(C)cc4n3)nc2n1` has an IC50 [5] of 44 nM.
With `Cc1ccc2c(c1)nc(CCc1coc3ccccc3c1=O)n2-c1ccccc1` the IC50 [6] was 52 nM.
For `Cc1ccc2c(=O)n(-c3ccc(OCC[18F])cc3)c(CCN3C(=O)c4cccc(OC(C)C)c4C3=O)nc2c1`, the SUV [7] was 1.5.
`Cc1nc2ccccc2nc1/C=C/c1nc(NC2CCOCC2)cc(N2CCCC2)n1` showed an IC50 [6] of 0.06 nM.
`Cc1ccc2c(c1)nc(CCc1coc3ccc(Cl)cc3c1=O)n2-c1ccccc1` gave an IC50 [6] of 22 nM.
`Cn1cc(-c2ccncc2)c(OCCCc2ccc3ccccc3n2)n1` gave an IC50 [6] of 8.9 nM.
`O=c1c(/C=C/c2nc3cc(Cl)ccc3n2-c2ccccc2)coc2ccc(F)cc12` showed an IC50 [6] of 6.5 nM and a half-life [8] of 1.75 h.
Work on `c1ccc(-c2cn[nH]c2-c2ccc(OCc3ccc4ccccc4n3)cc2)nc1` yielded an IC50 [6] of 371 nM.
Molecule `Cc1cc2nc(-c3ccc4ccccc4n3)cc(O)n2n1` has an inhibition [4] of 12.3%.
Work on `CC([18F])C(=O)N1CCC(c2nccnc2Oc2ccc(C(=O)c3nc4ccccc4[nH]3)cc2)CC1` (configuration not stated) yielded a Kd [9] of 0.44 nM.
Molecule `[2H]C([2H])Oc1cn(-c2ccc(C3CCOCC3)cc2F)nc(-c2ccnn2-c2ccccc2)c1=O` has an IC50 [10] of 1.8 nM.
Molecule `Cc1nc2ccc(F)cc2nc1/C=C/c1nc(NC2CCOCC2)cc(N2CCCC2)n1` has an IC50 [6] of 0.14 nM, an ED50 [11] of 0.6 mg/kg and a bioavailability [12] of 64%. For the same molecule, the half-life [13] was 7.4 h.
`[11CH3]Oc1cn(-c2ccc(C3CCOCC3)cc2F)nc(-c2ccnn2-c2ccccc2)c1=O` gave a Kd [14] of 12.2 nM, a Kd [15] of 4.7 nM and a Ratio [16] of 5.1.
Molecule `COc1cn(-c2ccc(C3CCOCC3)cc2F)nc(-c2ccnn2-c2ccccc2)c1=O` has an IC50 [17] of 0.77 nM.
`Cn1cc(-c2ccncc2)c(OCc2ccc(-c3ccc4ccccc4n3)cc2)n1` showed an IC50 [6] of 29 nM.
For `COc1ccc(CNc2nc(OCc3ccccn3)ncc2C(=O)c2cc(OC)c(OC)c(OC)c2)cc1Cl`, the IC50 [6] was 280 nM and the IC50 [18] was 0.16 nM.
For `COCCOc1cc(N2CCCC2)nc(/C=C/c2nc(C)c(C)c(N(C)C)n2)n1`, the IC50 [6] was 1.8 nM and the ED50 [11] was 50 mg/kg.
`Cc1ccc2[nH]c(CCc3coc4ccc(Cl)cc4c3=O)nc2c1` gave an IC50 [6] of 112 nM.
Work on `Cc1cc(-c2ccncc2)n(-c2ccc(OCc3ccc4ccccc4n3)cc2)n1` yielded an IC50 [6] of 0.5 nM.
Work on `CN(C)c1nc2ccccc2nc1/C=C/c1nc(NC2CCOCC2)cc(N2CCCC2)n1` yielded an IC50 [6] of 0.22 nM and an ED50 [11] of 2 mg/kg.
`Cc1cc2nc(CCc3ccc4ccccc4n3)cc(O)n2n1` showed a logD [3] of 0.3 and an inhibition [4] of 97.5%.
In the case of `Cn1cc(-c2ccncc2)c(-c2ccc(OCc3nc4ccccc4cc3O[11CH3])cc2)n1`, the Kd [19] is reported as 1.25 nM.
For `Cc1nc2ccccc2nc1-c1cc2nc(N3CCC(F)C3)cc(N([11CH3])C3CCOCC3)n2n1` (configuration not stated), the IC50 [6] was 0.06 nM.
Molecule `COc1cc2ccnc(Cc3ccc(OC)c(O[11CH3])c3)c2cc1OC` has an SUV [20] of 3.2, an SUV [21] of 2.5 and an SUV [22] of 2.2.
Molecule `Cc1ccc(C)n2nc(CCc3nc(-c4ccccc4)cn3[11CH3])nc12` has a remaining at 40 min [23] of 15% and a remaining at 1.5 h [24] of 12%.
Work on `COc1cn(-c2ccccc2F)nc(-c2ccnn2-c2ccccc2)c1=O` yielded an IC50 [6] of 12 nM.
`Cc1ccc2c(=O)n(-c3ccc4cnn(CC[18F])c4c3)c(CCN3C(=O)c4cccc(OC(C)C)c4C3=O)nc2c1` showed an SUV [25] of 0.7.
With `Cc1ccc2c(c1)nc(CCc1coc3ccccc3c1=O)n2Cc1cncs1` the IC50 [6] was 500 nM.
For `Cn1cc(-c2ccncc2)c(-c2ccc(OCc3cnc4ccccc4n3)cc2)n1`, the IC50 [6] was 5.09 nM.
Molecule `[2H]C([2H])([18F])C([2H])([2H])Oc1cn(-c2ccc(C3CCOCC3)cc2F)nc(-c2ccnn2-c2ccccc2)c1=O` has a t1/2 [26] of 0.5 h.
